For 19 compounds, inhibition and IC50 results are on record in patent US9000159B2 (Glenmark Pharmaceuticals, S.A., priority 2009, dated 2015).

The target in the test is T1, Human TRPA1 (Homo sapiens, UniProt O75762).
T1 construct: expressed in transfected cells; host or cells: CHO cells
As to the kind of experiment: 45Calcium uptake assay: inhibition of AITC induced cellular uptake of radioactive calcium. Format: cell-based. Particulars: AITC (30 μM) induced 45Ca uptake, Human TRPA1 expressing CHO cells; for inhibition at 1 µM: 1.0 μM test compound, read-out: Percentage inhibition at 1.0 μM; for inhibition at 10 µM: 10.0 μM test compound, read-out: Percentage inhibition at 10.0 μM; for IC50: read-out: Human IC50 value (range). The source says:
The illustrative examples of the present invention are screened for TRPA1 activity according to a modified procedure described in (a) Tóth, A. et al., Life Sciences, 2003, 73, 487-498. (b) McNamara C, R. et al., Proc. Natl. Acad. Sci. U.S.A., 2007, 104, 13525-13530. The screening of the compounds can be carried out by other methods and procedures known to persons skilled in the art.
Screening for TRPA1 Antagonist Using the ^45Calcium Uptake Assay
The inhibition of TRPA1 receptor activation was measured as inhibition of allyl isothiocyanate (AITC) induced cellular uptake of radioactive calcium. Test compounds were dissolved in DMSO to prepare 10 mM stock solution and then diluted using plain medium with 0.1% BSA and 1.8 mM CaCl2 to get desired concentration. Final concentration of DMSO in the reaction was 0.5% (v/v). Human TRPA1 expressing CHO cells were grown in F-12 DMEM medium with 10% FBS, 1% penicillin-streptomycin solution, 400 μg/ml of G-418. Cells were seeded 24 h prior to the assay in 96 well plates so as to get ˜50,000 cells per well on the day of experiment. Cells were treated with test compounds for 10 min followed by addition of AITC at a final concentration of 30 μM and 5 μCi/ml ^45Ca^+2 for 3 min. Cells were washed and lysed using buffer containing 1% Triton X-100, 0.1% deoxycholate and 0.1% SDS. Radioactivity in the lysate was measured in Packard Top count after addition of liquid scintillant. Concentration response curves were plotted as a % of maximal response obtained in the absence of test antagonist. IC50 value was calculated from concentration response curve by nonlinear regression analysis using GraphPad PRISM software.

T1 sequence (O75762 whole entry): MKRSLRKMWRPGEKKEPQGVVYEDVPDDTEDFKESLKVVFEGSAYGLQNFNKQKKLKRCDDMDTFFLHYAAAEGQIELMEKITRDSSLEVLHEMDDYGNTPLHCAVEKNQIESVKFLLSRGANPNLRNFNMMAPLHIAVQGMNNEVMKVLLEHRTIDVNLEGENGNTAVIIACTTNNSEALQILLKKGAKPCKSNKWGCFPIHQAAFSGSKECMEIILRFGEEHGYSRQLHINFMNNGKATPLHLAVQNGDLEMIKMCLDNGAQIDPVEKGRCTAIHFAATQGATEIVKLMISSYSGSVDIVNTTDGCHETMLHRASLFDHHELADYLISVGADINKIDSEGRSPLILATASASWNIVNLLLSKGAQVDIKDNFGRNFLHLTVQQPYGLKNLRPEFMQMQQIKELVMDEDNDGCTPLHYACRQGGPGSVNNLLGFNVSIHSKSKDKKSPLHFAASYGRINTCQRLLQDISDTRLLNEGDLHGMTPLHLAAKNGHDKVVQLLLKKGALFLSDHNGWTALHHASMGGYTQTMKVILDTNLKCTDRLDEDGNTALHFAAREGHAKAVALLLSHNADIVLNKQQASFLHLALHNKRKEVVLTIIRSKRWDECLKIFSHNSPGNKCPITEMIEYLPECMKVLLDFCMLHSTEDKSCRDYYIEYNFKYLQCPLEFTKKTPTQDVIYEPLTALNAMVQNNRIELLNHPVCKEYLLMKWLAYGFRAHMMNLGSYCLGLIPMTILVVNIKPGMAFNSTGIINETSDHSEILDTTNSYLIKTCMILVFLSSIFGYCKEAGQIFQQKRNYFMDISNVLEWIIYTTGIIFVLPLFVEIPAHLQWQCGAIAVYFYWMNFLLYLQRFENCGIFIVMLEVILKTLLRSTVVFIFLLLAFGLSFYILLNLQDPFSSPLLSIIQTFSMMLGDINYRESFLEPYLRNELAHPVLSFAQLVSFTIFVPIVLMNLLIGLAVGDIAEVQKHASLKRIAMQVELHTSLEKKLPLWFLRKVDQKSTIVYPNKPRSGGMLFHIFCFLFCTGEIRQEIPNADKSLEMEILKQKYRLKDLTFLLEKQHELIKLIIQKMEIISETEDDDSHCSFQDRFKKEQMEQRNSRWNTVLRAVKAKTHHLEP

As usually defined, the inhibition is the share of the control response that was lost under treatment. As usually defined, the IC50 is the concentration at which inhibition is half-maximal. As for `Cc1cc2c(c(=O)n(C)c(=O)n2C)n1CC(=O)Nc1nc(-c2cc(F)c(OCC3CCC3)c(F)c2)cs1` [Example 27, N-[4-(4-Cyclobutylmethoxy-3,5-difluorophenyl)-1,3-thiazol-2-yl]-2-(1,3,6-trimethyl-2,4-dioxo-1,2,3,4-tetrahydro-5H-pyrrolo[3,2-d]pyrimidin-5-yl)acetamide], the inhibition at 1 µM worked out at 87.6%, the inhibition at 10 µM stood at 99.2% and the IC50 is less than 50 nM.

For `Cn1c(=O)c2c(ccn2CC(=O)Nc2nc(-c3cc(F)c(OCC4CC4)c(F)c3)cs2)n(C)c1=O` [Example 17, 2-(1,3-Dimethyl-2,4-dioxo-1,2,3,4-tetrahydro-5H-pyrrolo[3,2-d]pyrimidin-5-yl)-N-{4-[4-(cyclopropylmethoxy)-3,5-difluorophenyl]-1,3-thiazol-2-yl}acetamide], the inhibition at 1 µM came to 33.5% and the inhibition at 10 µM came to 49.9%.

Take `Cn1c(=O)c2c(ccn2CC(=O)Nc2nc(-c3cc(Cl)c(OCCC(F)(F)C(F)(F)F)c(Cl)c3)cs2)n(C)c1=O` [Example 15, N-{4-[3,5-Dichloro-4-(3,3,4,4,4-pentafluorobutoxy)phenyl]-1,3-thiazol-2-yl}-2-(1,3-dimethyl-2,4-dioxo-1,2,3,4-tetrahydro-5H-pyrrolo[3,2-d]pyrimidin-5-yl)acetamide]: the inhibition at 1 µM turned out to be 76.5%, the inhibition at 10 µM came out at 92.5% and the IC50 lay within 50 to 100 nM.

Take `Cn1nc2c(c1CC(=O)Nc1cc(-c3ccc(Br)cc3)on1)c(=O)n(C)c(=O)n2C` [Example 65, N-[5-(4-Bromophenyl)isoxazol-3-yl]-2-(2,5,7-trimethyl-4,6-dioxo-4,5,6,7-tetrahydro-2H-pyrazolo[3,4-d]pyrimidin-3-yl)acetamide]: the inhibition at 1 µM came to 12.5% and the inhibition at 10 µM was 24.6%.

With `Cn1nc2c(c1CC(=O)Nc1nc(-c3ccc(C(F)(F)F)cc3F)cs1)c(=O)n(C)c(=O)n2C` [Example 56, N-{4-[2-Fluoro-4-(trifluoromethyl)phenyl]-1,3-thiazol-2-yl}-2-(2,5,7-trimethyl-4,6-dioxo-4,5,6,7-tetrahydro-2H-pyrazolo[3,4-d]pyrimidin-3-yl)acetamide], the inhibition at 1 µM amounted to 96.2%, the inhibition at 10 µM is 98.2% and the IC50 is less than 50 nM.

`Cn1c(=O)c2c(cnn2CC(=O)Nc2nc(-c3cc(F)c(OCC(C)(C)C)c(Cl)c3)cs2)n(C)c1=O` [Example 80, N-{4-[3-Chloro-4-(2,2-dimethylpropoxy)-5-fluorophenyl]-1,3-thiazol-2-yl}-2-(4,6-dimethyl-5,7-dioxo-4,5,6,7-tetrahydro-1H-pyrazolo[4,3-d]pyrimidin-1-yl)acetamide]: the inhibition at 1 µM was 100%, the inhibition at 10 µM was determined as 100% and the IC50 is less than 50 nM.

With `Cn1c(=O)c2c(cnn2CC(=O)Nc2nc(-c3ccc(F)c(C(F)(F)F)c3F)cs2)n(C)c1=O` [Example 71, N-{4-[2,4-Difluoro-3-(trifluoromethyl)phenyl]-1,3-thiazol-2-yl}-2-(4,6-dimethyl-5,7-dioxo-4,5,6,7-tetrahydro-1H-pyrazolo[4,3-d]pyrimidin-1-yl)acetamide], the inhibition at 1 µM worked out at 78.2%, the inhibition at 10 µM came out at 99.3% and the IC50 was in the range of 50 to 100 nM.

For the compound `CC(C)COc1c(F)cc(-c2csc(NC(=O)Cn3ncc4c3c(=O)n(C)c(=O)n4C)n2)cc1F` [Example 74, N-[4-(3,5-Difluoro-4-isobutoxyphenyl)-1,3-thiazol-2-yl]-2-(4,6-dimethyl-5,7-dioxo-4,5,6,7-tetrahydro-1H-pyrazolo[4,3-d]pyrimidin-1-yl)acetamide], the inhibition at 1 µM came to 92.1%, the inhibition at 10 µM worked out at 98.8% and the IC50 was less than 50 nM.

Regarding `Cn1c(=O)c2c(cnn2CC(=O)Nc2nc(-c3ccc(OCC(C)(C)C)c(Cl)c3)cs2)n(C)c1=O` [Example 70, N-{4-[3-Chloro-4-(2,2-dimethylpropoxy)phenyl]-1,3-thiazol-2-yl}-2-(4,6-dimethyl-5,7-dioxo-4,5,6,7-tetrahydro-1H-pyrazolo[4,3-d]pyrimidin-1-yl)acetamide], the inhibition at 1 µM was 91.5%, the inhibition at 10 µM stood at 98.8% and the IC50 was less than 50 nM.

Take `Cn1c(=O)c2c(cnn2CC(=O)Nc2nc(-c3cc(F)c(OC(F)F)c(F)c3)cs2)n(C)c1=O` [Example 72, N-{4-[4-(Difluoromethoxy)-3,5-difluorophenyl]-1,3-thiazol-2-yl}-2-(4,6-dimethyl-5,7-dioxo-4,5,6,7-tetrahydro-1H-pyrazolo[4,3-d]pyrimidin-1-yl)acetamide]: the inhibition at 1 µM turned out to be 85.9%, the inhibition at 10 µM was determined as 97.7% and the IC50 was greater than 100 nM.

In the case of `CN(C)Cc1cn(CC(=O)Nc2nc(-c3ccc(C(F)(F)F)c(F)c3)cs2)c2c(=O)n(C)c(=O)n(C)c12` [Example 38, N-{4-[3-Fluoro-4-(trifluoromethyl)phenyl]-1,3-thiazol-2-yl}-2-{7-[(dimethylamino)methyl]-1,3-dimethyl-2,4-dioxo-1,2,3,4-tetrahydro-5H-pyrrolo[3,2-d]pyrimidin-5-yl}acetamide], the inhibition at 1 µM is 57% and the inhibition at 10 µM was 97.8%.

For `Cn1c(=O)c2c(cnn2CC(=O)Nc2nc(-c3cc(F)c(OCC(F)(F)F)c(F)c3)cs2)n(C)c1=O` [Example 73, N-{4-[3,5-Difluoro-4-(2,2,2-trifluoroethoxy)phenyl]-1,3-thiazol-2-yl}-2-(4,6-dimethyl-5,7-dioxo-4,5,6,7-tetrahydro-1H-pyrazolo[4,3-d]pyrimidin-1-yl)acetamide], the inhibition at 1 µM was found to be 99.1%, the inhibition at 10 µM is 99.9% and the IC50 was less than 50 nM.

Regarding `Cn1c(=O)c2c(cnn2CC(=O)Nc2nc(-c3ccc(OCC(C)(C)C)c(F)c3)cs2)n(C)c1=O` [Example 69, N-{4-[4-(2,2-Dimethylpropoxy)-3-fluorophenyl]-1,3-thiazol-2-yl}-2-(4,6-dimethyl-5,7-dioxo-4,5,6,7-tetrahydro-1H-pyrazolo[4,3-d]pyrimidin-1-yl)acetamide], the inhibition at 1 µM was 97.3%, the inhibition at 10 µM is 99.8% and the IC50 is less than 50 nM.

As for `Cn1c(=O)c2c(ccn2CC(=O)Nc2nc(-c3cc(F)c(OCC(F)(F)F)c(F)c3)cs2)n(C)c1=O` [Example 11, N-{4-[3,5-Difluoro-4-(2,2,2-trifluoroethoxy)phenyl]-1,3-thiazol-2-yl}-2-(1,3-dimethyl-2,4-dioxo-1,2,3,4-tetrahydro-5H-pyrrolo[3,2-d]pyrimidin-5-yl)acetamide], the inhibition at 1 µM turned out to be 96.3%, the inhibition at 10 µM was found to be 98.1% and the IC50 is less than 50 nM.

For `Cc1cc2c(c(=O)n(C)c(=O)n2C)n1CC(=O)Nc1nc(-c2cc(Cl)c(OCC(C)(C)C)c(Cl)c2)cs1` [Example 29], the inhibition at 1 µM is 95.6%, the inhibition at 10 µM is 97.1% and the IC50 was less than 50 nM.

Turning to `Cn1nc2c(c1CC(=O)Nc1nc(-c3ccc(OC(F)(F)F)c(F)c3)cs1)c(=O)n(C)c(=O)n2C` [Example 59, N-{4-[3-Fluoro-4-(trifluoromethoxy)phenyl]-1,3-thiazol-2-yl}-2-(2,5,7-trimethyl-4,6-dioxo-4,5,6,7-tetrahydro-2H-pyrazolo[3,4-d]pyrimidin-3-yl)acetamide], the inhibition at 1 µM stood at 97.6%, the inhibition at 10 µM was 99.3% and the IC50 is less than 50 nM.

As to `Cc1cn(CC(=O)Nc2nc(-c3ccc(C(F)(F)F)c(F)c3)cs2)c2c(=O)n(C)c(=O)n(C)c12` [Example 35, N-{4-[3-Fluoro-4-(trifluoromethyl)phenyl]-1,3-thiazol-2-yl}-2-(1,3,7-trimethyl-2,4-dioxo-1,2,3,4-tetrahydro-5H-pyrrolo[3,2-d]pyrimidin-5-yl)acetamide], the inhibition at 1 µM was found to be 64.7% and the inhibition at 10 µM turned out to be 96.8%.

On to `CN(C)Cc1cn(CC(=O)Nc2nc(-c3cc(F)c(OCC(C)(C)C)c(F)c3)cs2)c2c(=O)n(C)c(=O)n(C)c12` [Example 39], for which the inhibition at 1 µM was 4.89% and the inhibition at 10 µM came to 21.1%.

For `Cn1nc2c(c1CC(=O)Nc1nc(-c3ccc(F)c(F)c3)cs1)c(=O)n(C)c(=O)n2C` [Example 51, N-[4-(3,4-Difluorophenyl)-1,3-thiazol-2-yl]-2-(2,5,7-trimethyl-4,6-dioxo-4,5,6,7-tetrahydro-2H-pyrazolo[3,4-d]pyrimidin-3-yl)acetamide], the inhibition at 1 µM came to 57.5% and the inhibition at 10 µM was determined as 79.7%.
